Assays:
Assay type in all cases: cell-based, human
[1] = tested on: Intestinal epithelial cells of the Caco-2 line; experiment: Iron fixation at the cellular level with added chemical donor of NO (Example 2); details: SNAP between 0 and 1 μM added to tubes 2 (Lf-^59Fe) and 4 (Lf-^59Fe + ^59Fe) of Table II
Procedure: (§1) Intestinal epithelial cells of the Caco-2 line derived from a colon cancer were incubated in a proportion of 2×10^6 cells per ml in an RPMI 1640 medium buffered at pH 7.4, in the presence of 25 mmolar of Hepes, containing 15% (v/v) of fetal calf serum, 2 mmol/l of L-glutamine and 1% (v/v) of a solution of streptomycin-penicillin, sold by the company Gibco.
Tubes of intestinal epithelial cell cultures were prepared and cultured under the same conditions as those described above in Example 1.
Iron fixation at the cellular level was then initiated by adding Lf-^59Fe and/or labeled iron.
One of the cell culture tubes received none of the constituents, so as to serve as a control.
The distribution of the constituents, and also the concentrations at which they were used, appear in Table II below:
The culture tubes then received SNAP in amounts ranging between 0 and 1 μM, and the cellular fixation of radiolabeled iron were then measured using a device for measuring the radioactivity.

[2] = tested on: Intestinal epithelial cells of the Caco-2 line; experiment: Degree of iron fixation at the cellular level as a function of concentrations (Example 3); details: Caco-2 cells, after 72 hours of incubation; tube contents per Table III (mg/ml); Control = 1
Procedure: as §1
Twelve tubes of epithelial cell cultures were prepared according to the conditions described above in Example 1.
Iron fixation at the cellular level was then initiated by adding Lf-^59Fe and/or labeled iron and/or L-arginine.
One of the cell culture tubes received none of these three constituents, so as to act as a control.
The distribution of the constituents, and also the concentrations at which they were used, appear in Table III below:
The degree of cellular fixation of iron was measured after 72 hours of incubation using a device for measuring the radioactivity.

[3] = tested on: Intestinal epithelial cells of the Caco-2 line; experiment: Iron fixation at the cellular level with added inhibitor of the L-arginine pathway (Example 1, FIG. 2); details: 1 mM added to the medium of tubes 1, 2, 4 and 8 of Table I; virtually returned to the degree without L-arginine (tube 2)
Procedure: as §1
The cells were then incubated for a period of 16 hours in Eppendorf tubes kept stirring for the final 2 hours of the culture period. Throughout the incubation period, the amount of cellular iron was measured by centrifugation pellet of the cells a first time after 30 minutes (t=0.5), then after one hour (t=1), and then every hour (t=2 to t=16), using a device for measuring the radioactivity.

CC(=O)N[C@H](C(=O)O)C(C)(C)SN=O (racemic) [SNAP, S-nitroso-N-acetylpenicillamine]
Degree of iron fixation in the epithelial cells after addition of SNAP [1]: increase the degree of iron fixation in the epithelial cells

N=C(N)NCCC[C@H](N)C(=O)O [Cell culture tube 8, L-arginine, reference compound]
Degree of iron fixation in the cells (cpm ^59Fe) [2]: 1 cpm ^59Fe

COC(=O)[C@@H](N)CCCNC(=N)N[N+](=O)[O-] [L-NAME, N^ω-nitro-L-arginine methyl ester]
Degree of iron fixation at the cellular level after addition of L-NAME [3]: very large decrease in the degree of iron fixation at the cellular level

— US6984624B2, “Composition containing an iron complexing protein and a precursor of nitrogen monoxide metabolism and/or a chemical donor of nitrogen monoxide and uses thereof” (Isocell S.A., priority 2000, dated 2006)
